Experimental findings from patent publication US20260002109A1, “SYSTEMS AND PROCESSES FOR SKIN TISSUE GROWTH AND ANALYSIS” (Outer Biosciences, Inc., priority 2023, published 2026) are described below.

The structures appear in SMILES notation.

The subject of data set [1] is barrier function of the skin. In words: Transepidermal water loss (TEWL) measurement on skin biopsies in inserts. Conditions: biopsy edges sealed with Loctite super glue. It counts as cell-based. An excerpt: The purpose of this example is to incorporate sealed sensors into an insert. Sealing the biopsy edge using Loctite super glue, as shown in the photograph in FIG. 18A and the histology stain image in FIG. 18B, allowed the measurement of changes in barrier function with sensitivity, as well as preventing leakage of topically-applied substances into the dermis through the edge of the biopsy as well as allowing for the precise measurement of changes in the barrier function of the skin using clinical sensors.
FIGS. 19A-19B illustrate measurements of transepidermal water loss (TEWL) in model skin that were either not sealed or sealed using Loctite super glue, respectively. TEWL measurements were taken using a Courage+Khazaka Multi Probe Adapter MPA 10. […] FIG. 20 show a comparison in TEWL measurements of the effects of a barrier enhancer (Niacinamide) and a barrier disrupter (SDS) on skin sealed with Loctite super glue over a six-day period.

Data set [2] has as its system normal skin tissue in an insert. In words: Skin irritation: histopathological scoring of H&E stained skin tissue. Conditions: 2% for 24 hours, topical; compared to the control group. It counts as cell-based. How it is done: (§1) The purpose of this example is to test and replicate dynamic changes in skin across various types of clinically relevant stimuli, including skin irritations, intradermal injection. cosmetic product treatment, and antioxidant defense. Approximations of skin irritation evaluated in this manner include topical chemical treatment 261, burn treatment 262, and UV treatment 263, as illustrated in FIGS. 26A-26C, respectively. Chemical irritation was approximated through application of 2% SDS for 24 hours, burns were approximated through 100° C, contact with a heated metal rod for 45 seconds, and UV irritation was approximated via UVA and UV application for 30 minutes. […] Skin tissues were evaluated and scored using the parameters in Table 9 as provided above. Include protocol, histological parameters, histology staining and scoring results, immune and inflammatory responses, antioxidant defense assessment, etc.
FIGS. 28A-28D provide H&E stained tissues for a first selection of untreated. chemical-treated, burn-treated, and UV-treated skin tissue samples, respectively. A pathological analysis of the extent of damage was undertaken and is shown in FIGS. 29A-29C to evaluate epidermal damage, eczematous epidermis, and epidermis thickness, respectively, after application of damage stimuli. […] UV irradiation caused epidermal thinning compared to the control group.

The test system of data set [3] is skin tissues. Description: Skin irritation: collagen deposition by histopathological scoring (Masson's Trichrome). It is filed as cell-based. Conditions: 2% for 24 hours; compared to the untreated group. As for the experimental part: as §1
A second selection of samples were cultured and subjected to irritating stimuli, whereby a chemical stimulus group was subjected to 2% SDS for 24 hours, a burn group was subjected to 100° C, contact for 90 seconds, and a UV irritation group was subjected to UV-B for 30 minutes. FIGS. 30A-30D illustrate insert images after staining with Masson's Trichrome for untreated, chemical-treated, burn-treated, and UV-treated skin tissues, respectively. […]

Data set [4] concerns skin tissues. In words: Skin irritation: lactate dehydrogenase (LDH) release. It counts as cell-based. Conditions: 2% SDS for 24 hours; compared to untreated samples. How it is done: A second selection of samples were cultured and subjected to irritating stimuli, whereby a chemical stimulus group was subjected to 2% SDS for 24 hours, a burn group was subjected to 100° C, contact for 90 seconds, and a UV irritation group was subjected to UV-B for 30 minutes. FIGS. 30A-30D illustrate insert images after staining with Masson's Trichrome for untreated, chemical-treated, burn-treated, and UV-treated skin tissues, respectively. FIG. 31A provides an analysis of collagen deposition using histopathological scoring to determine the effects of damage stimuli on each group. As a result of this analysis, both burn and UV irradiation groups were discovered to have reduced collagen deposition compared to the untreated group. […] FIG. 31B provides an analysis of lactate dehydrogenase (LDH) release, which is widely used as a marker for assessing cell death and toxicity. The analysis indicated a significant increase of LDH release from all treatment conditions compared to untreated samples.

Another data set deals with skin tissue. Description: Tissue longevity analysis: media conditions judged by histology (epidermis and dermis structure) and culture survival. It counts as cell-based, human. An excerpt:
Table 5 provides a plurality of media mixtures applied to skin samples to assess the effects of various testing conditions on the skin tissue.

For the molecule `CCCCCCCCCCCCOS(=O)(=O)[O-].[Na+]` [SDS], the “barrier function by TEWL” value in data set [1] is “reduction in the barrier function”. For the same molecule, in data set [2], the eczematous epidermis entry was “moderate eczematous (atopic) epidermis”, the epidermal damage entry is “significant epidermal as evidenced by widespread dyskeratotic cells” and the thickness of epidermis result was “pathological epidermal thickening (acanthosis)”. Also, in the data set on skin tissues [3], the collagen deposition result was “No significant change in collagen deposition”. Besides, in the data set with skin tissues [4], the LDH release entry is “highest LDH release”.
In the case of `[Ca+2].[Cl-].[Cl-]` [calcium chloride], the “beneficial effect on skin samples” value with skin tissue (0.1 mM on the surface of skin samples) is reported as “neither testing condition was observed to have any beneficial effect”; in the data set with skin tissue (0.5 mM and 1 mM in media), “neither testing condition was observed to have any beneficial effect”.
